From patent US20250122210A1, “SMALL MOLECULE INHIBITORS OF KRAS G12D MUTANT” (DANA-FARBER CANCER INSTITUTE, INC., priority 2021, published 2025)

What was measured:
Assay type in all cases: cell-based
[1] = tested on: MIA-PaCa-2 cells; experiment: Anti-proliferative activity in MIA-PaCa-2 cells (CellTiter-Glo); conditions: Homo sapiens, 72 h, MIA-PaCa-2 cells (KRAS G12C), three days, read-out: IC50 (cell viability)
Procedure: MIA-PaCa-2 cells were treated with KRAS inhibitors at the density of 800 cells/well in 384-well plate for three days. Cell viability was evaluated using CellTiter-Glo® Luminescent Cell Viability Assay.

[2] = tested on: AGS cells; experiment: Anti-proliferative activity in AGS cells (CellTiter-Glo); conditions: Homo sapiens, 72 h, AGS cells (KRAS G12D), three days, read-out: IC50 (cell viability)
Procedure: AGS cells were treated with KRAS inhibitors at the density of 800 cells/well in 384-well plate for three days. Cell viability was evaluated using CelITiter-Glo® Luminescent Cell Viability Assay. […] AGS cells harbor KRAS G12D mutation. The improved antiproliferation effects of the compounds indicate stronger inhibition towards G12D mutation.

[3] = tested on: p-ERK in PC-9 cells (KRAS wild-type); experiment: Downstream evaluation in PC-9 cells (p-ERK immunoblot); conditions: Homo sapiens, 8 h and 24 h, read-out: inhibition of the downstream signaling measured by p-ERK
Procedure: PC-9 cells were treated with Compound 006 (DGY-12-161) in the 6-well plate at indicated concentrations for 8 h and 24 h, respectively. The intensities of the bands were quantified in LICOR Odyssey® CLx Imaging System. PC-9 cells are KRAS wild-type.

[4] = tested on: downstream signaling (p-ERK) in PANC-1 cells (KRAS G12D); experiment: Downstream evaluation in PANC-1 cells (p-ERK immunoblot); conditions: Homo sapiens, 8 h and 24 h, read-out: IC50 of inhibition of downstream signaling
Procedure: PANC-1 cells were treated with Compound 006 (DGY-12-161) in the 6-well plate at indicated concentrations for 8 h and 24 h, respectively. The intensities of the bands were quantified in LICOR Odyssey® CLx Imaging System. PANC-1 cells harbor KRAS G12D mutation.

| Compound | IC50 [1] [nM] | IC50 [2] [nM] | inhibition at 10 µM [3] [%] | IC50 [4] [nM] |
| --- | --- | --- | --- | --- |
| Oc1cc(-c2c(Cl)cc3c(N4[C@@H]5CC[C@H]4CNC5)nc(OCC45CCCN4CCC5)nc3c2F)c2ccccc2c1 [Compound 001, 4-(4-((1R,5S)-3,8-diazabicyclo[3.2.1]octan-8-yl)-6-chloro-8-fluoro-2-((tetrahydro-1H-pyrrolizin-7a(5H)-yl)methoxy)quinazolin-7-yl)naphthalen-2-ol] | 2300 | 600 | – | – |
| CN(C)C1CN(c2nc(N3[C@@H]4CC[C@H]3CNC4)c3cc(Cl)c(-c4cc(O)cc5ccccc45)c(F)c3n2)C1 [Compound 006, 4-(4-((1R,5S)-3,8-diazabicyclo[3.2.1]octan-8-yl)-6-chloro-2-(3-(dimethylamino)azetidin-1-yl)-8-fluoroquinazolin-7-yl)naphthalen-2-ol] | 2200 | 1400 | ~50 | < 10000 |
